Results as given in patent publication US12268676B2, “Antiviral applications of picolinic acid and its derivatives” (INDIAN INSTITUTE OF SCIENCE, priority 2021, dated 2025).
Like-named read-outs stand apart in the source and are kept apart here.

Key:
Zika Luc = assay: microbe, parasite or virus in culture; format: cell-based; conditions: A549, 48 h, read-out: inhibition (luciferase, normalized with untreated control)
PR8 WT virus [1] = assay: IAV time of addition assay (IFA for NP, western blot), Example 10; format: cell-based, Influenza A virus; conditions: for inhibition at 2000 µM: Influenza A virus
Coxsackie virus B3 = Coxsackie virus B3 infection of HeLa cells, western blot for VP1; format: cell-based
Procedure: The effects of PA against non-enveloped viruses were tested to see if PA would be effective against non-enveloped viruses as well. To this end, HeLa cells were either pre-treated for 3 hr with 2 mM PA, infected with 10 MOI Coxsackie virus B3 in presence of PA and collected 3 hr later (−3 hr); or treated during infection (T0); or virus and PA were incubated together for 1 hr and used for infection (1 hr virus+PA).
Coxsackie virus B3 infection: To study early effects of PA, HeLa cells were pre-treated for 3 hr, infected with 10 MOI CVB3, and collected at 3 hr post infection. Alternatively, cells were infected and treated simultaneously (T0) and collected after 3 hr. Also, a mixture of virus and drug incubated for 1 hr (1 hr PA+Virus) was used for infection to test the effects of PA on virus particles. No additional drug was added here post infection. Expression levels of VP1 protein was then detected by western blot analysis.

[2] = tested on: wild type Zika virus (ZIKV) Cambodia strain; assay: ZIKV infection, western blot of flavivirus envelope protein; format: cell-based; conditions: 2 mM PA, 0.1 MOI, 48 hr post infection (FIG. 7L)
[3] = tested on: Adenovirus 5 expressing eGFP; assay: Adenovirus 5 eGFP infection of HEK cells, flow cytometry; format: cell-based, Adenovirus Serotype 5; conditions: 2 mM PA, 10 MOI, 24 hr
SARS-CoV-2 spike protein = assay: SARS-CoV-2 spike induced syncytia assay; format: cell-based; conditions: Severe acute respiratory syndrome coronavirus 2, Vero C1008, 24 h, read-out: inhibition of syncytia (area, percentage of untreated control)
A549 cells = assay: Cytotoxicity of PA, Alamar Blue cell viability; format: cell-based, human
Procedure: Cytotoxicity of picolinic acid (PA) was tested by incubating human lung epithelial cells (A549 cells) with increasing concentrations of PA for up to 72 hrs and cell viability was measured at every 12 hr time intervals using Alamar Blue cell viability reagent (FIG. 1A). A549 cells were procured from ATCC, Manassas, Va., USA.
A549 cells were seeded in 96-well cell culture dishes and 24 hr later treated with 0.02, 0.2, 2, and 20 mM PA in triplicates. Cells were then incubated at 37° C., 5% CO2, and cytotoxicity was measured at 12, 24, 36, 48, 60, and 72 hr post-treatment using AlamarBlue™ Cell Viability Reagent (DAL 1025, Thermo Fisher) as per manufacturer's instructions.

IAV PR8 WT strain = format: in vivo, BALB/c mice
TM4 mycobacteriophage = assay: Effect of drug on TM4 mycobacteriophage; format: cell-based; conditions: 10 MOI
Procedure: Since most of the naked viruses tested were not inhibited by PA, whether PA would be effective against TM4 mycobacteriophages. M. smegmatis cells in a 48 well plate were treated with increasing concentrations of PA as indicated and OD600 measurements were taken periodically up to 24 hr. […] For the antiviral assay, 1 mM PA was either added at the start of experiment or 3 hr prior to infection. In either case, there was no protection from TM4 mycobacteriophage induced cell death (FIG. 12, panel G).
Effect of drug on TM4 mycobacteriophage: To study the effect of the drug on TM4 phage growth and activity, 7H9 broth supplemented with ADC and CaCl2 was prepared and inoculated with 100 μL of log-phase secondary bacterial culture (OD 1-2) per 5 mL of the media. 1 mM of the drug was added to culture tubes at the appropriate time (either at the start of the experiment or 3 hr before adding the phage in the mid-log phase). The cultures were then incubated at 37° C. with rotary shaking at 180 pm. For phage-treated samples, a 10 MOI TM4 mycobacteriophage was added at a specified interval of the mid-log phase. […] Readings were taken using a spectrophotometer (Jenway 7205 UV/Visible Spectrophotometer) at 600 nm against a media blank.

[4] = tested on: Herpes Simplex virus 1 (HSV1 Luc); assay: microbe, parasite or virus in culture; format: cell-based; conditions: Human alphaherpesvirus 1, A549, 48 h, read-out: inhibition in reporter virus assay
[5] = tested on: Influenza A viruses (IAVs); assay: microbe, parasite or virus in culture; format: cell-based, Influenza A virus
CVB3 = CVB3 multi-dose infection, plaque assay of supernatants; format: cell-based, Coxsackie virus B3; conditions: Vero cells, increasing concentrations of PA, 0.1 MOI, 48 hr p.i.
Description: Further, Vero cells were pre-treated with increasing concentrations of PA as indicated and infected with 0.1 MOI CVB3 in the presence of drugs. 48 hr p.i, cell culture supernatants were used to quantify infectious virus by plaque assay.

[6] = tested on: SARS-CoV-2 (isolate hCoV-19/Hong Kong/VM20001061/2020); assay: SARS-CoV-2 multi-cycle infection, viral RNA by qRT-PCR; format: cell-based; conditions: for decrease in total viral RNA copy numbers: 0.01 MOI, 48 hr (FIG. 6)
PR8 WT virus [7] = format: in vivo, BALB/c mice; conditions: for reduction of infectious virus titer in lung homogenates (plaque assay): 20 mg/kg PA prophylactically
[8] = tested on: Japanese Encephalitis Virus (JEV) clinical strain P20778; assay: JEV infection, western blot of flavivirus envelope protein; format: cell-based; conditions: 2 mM PA

Structure (SMILES): O=C(O)c1ccccn1 [PA, pyridine-2-carboxylic acid]
- inhibition at 2000 µM (Zika Luc): > 90%
- NP positive cells (IFA) (PR8 WT virus [1]): No differences
- inhibition at 2000 µM (PR8 WT virus [1]; PR8, 1 h, read-out: inhibition (IFA for nucleoprotein and western blot)): 50%
- inhibition at 2000 µM (PR8 WT virus [1]; PR8, A549, 3 h, read-out: inhibition (IFA, NP)): 80%
- effect on virus entry (VP1 western blot) (Coxsackie virus B3; incubation of virus with drug 1 hr prior to infection): did not have any effects
- effect on virus entry (VP1 western blot) (Coxsackie virus B3; pre-treatment 3 hr with 2 mM PA, 10 MOI): did not have any effects
- effect on virus entry (VP1 western blot) (Coxsackie virus B3; treatment at the time of infection (T0)): did not have any effects
- flavivirus envelope protein by western blot [2]: inhibition
- GFP positive cells, treated vs untreated [3]: Almost no differences
- inhibition at 1000 µM (SARS-CoV-2 spike protein): 70%
- inhibition at 2000 µM (SARS-CoV-2 spike protein): 80%
- cell viability (A549 cells; 20 mM PA, 36 hr post treatment): loss of cell viability
- drug concentration non-toxic to cells (A549 cells; over the period of 72 hr): up to 2 mM
- decrease in virus titre from lung tissue (plaque assay) compared to untreated (IAV PR8 WT strain; 20 mg PA, 72 hr post infection): Over 10 fold
- body weight loss after IAV infection (IAV PR8 WT strain; animals infected in the presence of 100 mg PA): 30%
- body weight loss after IAV infection (IAV PR8 WT strain; mouse, in vivo): minimal loss in body weight
- decrease in survival rate (IAV PR8 WT strain; mouse, in vivo): significantly reduced
- protection from TM4 mycobacteriophage induced cell death (TM4 mycobacteriophage; 1 mM PA added 3 hr prior to infection): no protection
- protection from TM4 mycobacteriophage induced cell death (TM4 mycobacteriophage; 1 mM PA added at the start of experiment): no protection
- inhibition at 2000 µM [4]: 80 to 90%
- reduction in virus titer [5]: 3 fold
- inhibition at 2000 µM ([5]; Influenza A virus, PR8, MDCK2, 48 h, read-out: maximum inhibition of infectious virus (plaque assay)): 50%
- infectious virus in supernatants (plaque assay) (CVB3): did not imply any differences
- decrease in total viral RNA copy numbers ([6]; Calu3, 2 mM PA): ~1 log10
- reduction in viral load ([6]; Calu3, 2 mM PA, 0.1 MOI, 48 hr (FIG. 7E)): 2 log
- decrease in total viral RNA copy numbers ([6]; HEK ACE2, 2 mM PA): three
- decrease in total viral RNA copy numbers ([6]; VeroE6, 2 mM PA): three
- reduction of infectious virus titer in lung homogenates (plaque assay) (PR8 WT virus [7]; IP route): > 10 fold
- reduction of infectious virus titer in lung homogenates (plaque assay) (PR8 WT virus [7]; oral route): > 10 fold
- survival (PR8 WT virus [7]; IP prophylactic group, 7 days p.i.): 80%
- bodyweight rescue compared to virus control (PR8 WT virus [7]; IP prophylactic group, day 7): > 10%
- rescue of total animal body weight (PR8 WT virus [7]; all groups): Over 90%
- abrogation of lung virus titers, IP vs oral route (PR8 WT virus [7]; mouse, in vivo): more effective
- clinical scores of histology sections (PR8 WT virus [7]; mouse, in vivo): recovery
- lung histology analysis (PR8 WT virus [7]; mouse, in vivo): marked reduction in pathology
- animal survival (PR8 WT virus [7]; mouse, in vivo, ip): completely rescue
- lung histology analysis (PR8 WT virus [7]; mouse, in vivo, po): best rescue
- flavivirus envelope protein by western blot ([8]; 0.1 MOI, 48 hr post infection (FIG. 7K)): inhibition
- decrease in the flavivirus envelope protein expression (western blot) ([8]; VeroE6 cells, 48 hr post infection, normalized against actin): 0.75 fold
